Assay results published in patent publication US5874469A, “Fluoroalkyl hydrocarbons for administering water insoluble or unstable drugs” (Alcon Laboratories, Inc., priority 1996, dated 1999).
Converted amounts (≈) assume the structure as drawn. Blank lines part the entries; values can stand above or below the compound they belong to.

Assays:
physchem [1] = conditions: 12205-1 perfluoro ester, organic solvent or mixture
[2] = Storage stability (hydrolysis) of cabergoline in 12205-1, HPLC; assay type: physicochemical; conditions: room temperature, 40° C. and 50° C., FIG. 1b
Method: 0.0056 g of cabergoline was weighed in a vial. […] The mixture was vortexed well and then sonicated for 30 minutes. The suspension was filtered through a 0.2μ acrodisc. The filtrate was split into 3 vials. The vials were stored at room temperature ("RT"), 40° C. and 50° C. The vial stored at room temperature was wrapped in aluminum foil. 100 μL of sample was withdrawn as a function of time. 1 mL of pH 3.0 phosphate buffer was added to the sample and vortexed. The supernatant was taken and analyzed by HPLC as described above.

physchem [3] = conditions: organic solvent or mixture
[4] = Solubility of betaxolol and dipivefrin, dissolved together, in 12205-1 (extraction into pH 3.0 phosphate buffer, reverse phase HPLC); conditions: 12205-1 perfluoro ester, organic solvent or mixture
[5] = Solubility of dipivefrin in 12205-1 (excess drug stirred 30 minutes, filtered, extracted with pH 3.0 phosphate buffer); assay type: physicochemical; conditions: 12205-1 perfluoro ester, organic solvent or mixture, vehicle 12205-1, excess dipivefrin alone, 0.2μ filter
Method: The solution was filtered through a 0.2μ filter and 100 μl of the sample was extracted with phosphate buffer (pH 3.0). The aqueous portion was analyzed for dipivefrin.

[6] = Storage stability (hydrolysis) of leflunomide in 12205-1, HPLC; assay type: physicochemical; conditions: 60° C. in an oven, FIG. 2b
Method: The suspension was filtered and the filtrate was put on stability testing at 60° C. in an oven. 100 μL of sample was withdrawn as a function of time. The vehicle was evaporated and the residual sample was reconstituted in 1 mL of the mobile phase for leflunomide. The sample was analyzed by HPLC to determine the leflunomide content. […] The composition is therefore expected to be stable during storage.

[7] = Solubility of leflunomide in fluoroalkyl hydrocarbon vehicle (filtration, extraction into mobile phase, HPLC); conditions: 12205-1 perfluoro ester, organic solvent or mixture
physchem [8] = conditions: perfluorooctanol, organic solvent or mixture

solubility (physchem [1]): > 1000 µg/mL
SMILES: CC(C)NCC(O)COc1ccc(CCOCC2CC2)cc1 (stereo not drawn) [betaxolol]

SMILES: C=CCN1C[C@H](C(=O)N(CCCN(C)C)C(=O)NCC)C[C@@H]2c3cccc4[nH]cc(c34)C[C@H]21 [cabergoline]
hydrolysis of cabergoline on storage [2]: no hydrolysis
solubility (physchem [3]; 12205-1 perfluoro ester): 1040 µg/mL (≈ 2290 µM)
solubility (physchem [3]; perfluorooctanol): 2700 µg/mL (≈ 5980 µM)

SMILES: CNCC(O)c1ccc(OC(=O)C(C)(C)C)c(OC(=O)C(C)(C)C)c1 (stereo not drawn) [dipivefrin]
solubility [4]: > 1000 µg/mL
solubility at 0.5 h [5]: > 1000 µg/mL

SMILES: Cc1oncc1C(=O)Nc1ccc(C(F)(F)F)cc1 [leflunomide]
hydrolysis of leflunomide on storage [6]: no hydrolysis
solubility [7]: 238 µg/mL (≈ 881 µM)
solubility (physchem [8]): 2000 µg/mL (≈ 7400 µM)
